Where no end group is shown, it is not given here.
How the values were obtained:
leukocytes in blood = experiment: Corneal epithelial burn model: number of leukocytes in blood; type: in vivo, New Zealand white rabbit; details: rabbit, alkali burn of cornea; 5 nmole/kg SP i.v. twice; after three days after burning; vs continuously increased without SP; FIG. 6
Experimental: Ketalar (50 mg/ml, Yuhan Corporation) and Rompun (23.32 mg (Xylazine hydrochloride)/ml, Bayer Korea Corporation) were mixed in a rate of 2:1, and then total 900 μl (Ketalar 600 μl: Rompun 300 μl) was injected into muscles of rabbits (New Zealand white rabbit, Male, 2.5 kg, n=4). After the intramuscular injection, 300 μl (Ketalar 200 μl: Rompun 100 μl) of the same anesthetic drug was injected in the rabbit's ear vein.
A 6 mm paper disc fully wetted by 1N NaOH was contacted to a limbus part of rabbit's cornea for 10 seconds. After alkali burning, corneal epithelium was removed in a size of the paper disc. The rabbit's eyes were quickly washed with a physiological saline immediately after alkali burning. At the same time, 5 nmole/kg of SP dissolved in a physiological saline was intravenously injected, and then after 24 hours, was injected once more (immediately after burning and at 24 hours after burning). For the control, PBS with the same volume was injected (injection Volume: 1 ml). […]
2 ml of the whole 10 ml was used for counting blood cells and the number of leukocytes was analyzed in Neodin (Company for analysis of blood cells). Concretely, 2 ml of blood was added to a vial including EDTA; it was well mixed; then the whole leukocyte level was analyzed in an automatic analyzer (SYSMEX XE-2100 automatic analyzer from SYSMEX Corporation [Japan]); and then the results were shown in FIG. 6.

[1] = test system: mononuclear cells isolated from peripheral blood; experiment: IL-6 and IL-10 expression (ELISA) in peripheral blood mononuclear cells treated with SP; type: cell-based, C57b1/6 mice; details: peripheral blood mononuclear cells in T-cell activation media (ConA); 10 nmole/kg SP; 4.5, 10, 24 hours; FIG. 1
Experimental: Peripheral blood was collected from C57b1/6 mice (8 weeks, sex; male, n=5, Average Weight; 20 g), diluted doubly with PBS, carefully placed on Ficoll in a tube, and then centrifuged at 2200 rpm for 20 minutes. By centrifuging, from the bottom, an erythrocyte layer, a ficoll layer, a mononuclear cell layer, and a plasma layer were obtained in order. The mononuclear cell layer and plasma layer were isolated, excluding the erythrocyte layer and ficoll layer, and then washed one time with PBS. Then, the number of cells was counted; the cells with a concentration of 1×10^5/0.2 ml were seeded onto T-cell activation media (lymphocyte activation media; RPMI, 10% FBS, 100 μM 2-mercaptoetanol, 20 μg/ml ConA); then the cells were cultured at an incubator of 37° C.; and then culture supernatant was taken at 4.5 hours, 10 hours, and 24 hours. For SP-treated group, 10 nmole/kg of SP dissolved in a physiological saline was treated to T-cell activation media. […] After 30 minutes, 100 μl of stop codon was treated to stop the reaction; the optical density was measured at 450 nm; the amounts of cytokines were converted based on a protein conversion formula by a standard sample; and then the results were shown in FIG. 1.

[2] = Streptozotocin-induced Type I diabetes: blood glucose level and weight; type: in vivo, ICR mouse; details: for blood glucose level: FIG. 13
Experimental: Specifically, 5 nmole/kg of SP dissolved in a physiological saline was injected to a tail vein of ICR mouse (8 weeks, sex; male, n=10, Average Weight: 30 g), and then STZ (Sigma, USA) was intraabdominally injected. Streptozotocin was daily injected intraabdominally for two days, and SP was intravenously injected at the same concentration for five days. Only streptozotocin was injected for the control; after one week, blood glucose level was checked to confirm induction of diabetes; then SP was intravenously injected for five days from seven days after STZ injection.
Blood glucose level and weight were investigated. One drop of blood was taken from a tail vein of mouse by one time per 2-3 days, and a blood glucose level was measured by using a glucometer (Roche, Switzerland) and a weight was measured.

IL-10 = experiment: Radiation-irradiating model: anti-inflammatory cytokine IL-10 in blood (ELISA); type: in vivo, C57b1/6 mice; details: mice, 8 Gy, 5 nmole/kg SP i.v., FIG. 9
Experimental: 5 nmole/kg of SP dissolved in a physiological saline was injected to a tail vein of C57b1/6 mice (8 weeks, sex; male, n=4, Average weight; 20 g) one day before irradiation and immediately after irradiation. The irradiation was performed at 8 Gy radiation in a Gamma lay radiation irradiator (^137Cs, Atomic Energy of Canada, Mississauga, Canada). The mice were sacrificed at 4.5 hours and one day after irradiation, and then the blood was collected. The part of the blood was used for analyzing CBC (Complete Blood Count) and the remaining blood was used to isolate serum and then analyze cytokines
IL-6 and TNFα that are well known as inflammatory cytokines were analyzed. Specific procedures were as follows: Serum samples stored in […] and reagents, controls, and standard proteins stored in a cold storage were taken out at a room temperature. […] After 30 minutes, 100 μl of stop codon was treated to stop the reaction; the optical density was measured at 450 nm; the amounts of cytokines were converted based on a protein conversion formula by a standard sample; and then the result was shown in FIG. 8. […]
IL-10 that is well known as an anti-inflammatory cytokine was analyzed with ELISA (R&D System) by using the same method as Example 2-2.

Substance-P (RPKPQQFFGLM; not fully specified; ends and bridges not checked; UniProt P20366 58-68, looked up)
number of leukocytes in blood (increase % based on Day 0-level) (leukocytes in blood): sharply decreased
expression level of IL-6 in culture supernatant [1]: no a significant difference
expression level of IL-10 in culture supernatant [1]: increased
blood glucose level ([2]; STZ/SP-injected group: 5 nmole/kg SP i.v. for five days at the same time as STZ): maintained in normal state
weight ([2]; STZ/SP-injected group: 5 nmole/kg SP i.v. for five days at the same time as STZ, FIG. 14): maintained in normal state
blood glucose level ([2]; STZ/after SP-injected group: SP i.v. for five days from seven days after STZ, after inducing diabetes): decreased in the short run
amount of IL-10 in blood (IL-10; 4.5 hours after irradiation): increased by at least two times
amount of IL-10 in blood (IL-10; one day after irradiation): increased
